Reference: patent US20230003721A1, “MITOTHERAPEUTICS FOR THE TREATMENT OF BRAIN DISORDERS” (The University of Florida Research Foundation, Inc., priority 2019, published 2023)
Where a name gives a salt, the structure may show the parent alone. Read-outs that look alike come from different tables or passages of the source.

Assays:
[1] = tested on: primary neurons; test: CellTiter-Glo luminescence-based ATP assay; assay type: cell-based, mouse; settings: for ATP: ATP orthogonal screen, 24 h; for Emax: maximal percent increase relative to in-plate DMSO controls, read-out: ATP (Effect-size)
Description: Measurement of ATP production. The total amount of ATP produced by cultured primary neurons was measured by CellTiter-Glo Luminescent Cell Viability Assay (Promega). A recombinant luciferase enzyme catalyzed the mono-oxygenation of luciferin while hydrolyzing ATP produced by the cells and emitting light. We followed the manufacturer's protocol with primary neurons on DIV14.
(§1) A CLARIOstar (BMG LABTECH) microplate reader was used to measure fluorescence of TMRM and luminescence produced from the ATP.
(§2) Mitochondrial membrane potential (Δψm) and luminescence-based ATP assays. […] Changes of ΔΨm in each well were monitored using the mitochondrial-specific, fluorescent dye TMRM (tetramethyl rhodamine, methyl ester; Molecular Probes) and measured using a CLARIOstar plate reader. […] This concentration was used throughout our experiments. […] Wells in columns 1 and 24 were not loaded with TMRM; these served to measure background signal which was subtracted from the wells to which TMRM was added. To measure the total ATP levels in neurons we utilized the CellTiter-Glo® luminescence-based ATP assay (Promega). DIV13 primary neurons were cultured for 24 h with either DMSO carrier or compound treatment, followed by removing 55 μl culture medium from each well. Plates were maintained at room temperature for 25 m, and 25 μl of CellTiter-Glo® Reagent with the substrate luciferin was then added to each well (Promega). Plates were covered with aluminum foil and shaken vigorously on an orbital shaker for 10 m at 200 rpm and maintained at room temperature for an additional 2 m in dark before being read with the plate reader set to the luminescence mode.
Compound library and hit picking rules. We screened 2400 compounds from the MicroSource Spectrum library. […] FIGS. 13A-13E provide details of the assays used from which hit picking rules were made. In essence, the average fluorescence for each compound in the TMRM assay was determined and compared to the average fluorescence for compounds in the population on each assay plate to produce a Z-score. The Z-scores for each individual compound assayed across the four replicate plates was then averaged. Because of significant well location effects (outer rows) on each assay plate (FIG. 13G), we selected primary hits as enhancing well fluorescence above the μplate by 3σplate for inner row wells (rows C-N, columns 3-22), and by 2.5σplate for outer row wells (rows A, B, O, P; columns 3-22) (FIG. 14C-D). […] All orthogonal assays employed inner wells of the 384-well plates.

[2] = tested on: primary neurons; test: TMRM fluorescence assay of inner mitochondrial membrane potential (ΔΨm); settings: for Emax: read-out: TMRM (Effect-size)
Description: Mitochondrial dyes. To assay the electrochemical potential across the inner mitochondrial membrane of cultured cells, we used the cell-permeant dye tetramethylrhodamine methyl ester (TMRM). For co-localization studies with Mt-GFP, TMRM was used at 20 nM on DIV14 and incubated for 30 min prior to imaging. For the orthogonal screen of compounds, TMRM was added to primary neurons on DIV13 at 10 nM, one hr prior to pintooling selected compounds, and incubated for 24 hr. Cells were washed 2× with pre-warmed fresh feeding media without B27 before measurements with a plate reader.
as §1, §2
Compound library and hit picking rules. We screened 2400 compounds from the MicroSource Spectrum library. […] FIGS. 13A-13E provide details of the assays used from which hit picking rules were made. In essence, the average fluorescence for each compound in the TMRM assay was determined and compared to the average fluorescence for compounds in the population on each assay plate to produce a Z-score. The Z-scores for each individual compound assayed across the four replicate plates was then averaged.

[3] = Mus musculus, Primary neuron, dose response

CC(C)NCC(O)COc1cccc2ccccc12.Cl (racemic) [propranolol hydrochloride (+/−)]
ATP [1]: 5.06 Z-scores | TMRM Primary ([2]; primary screen, 12.5 μM, 24 h): 4.03 Z-scores | TMRM Rescreen ([2]; rescreen, 24 h): 3.07 Z-scores

CC1(C)[C@H](O)CC(=O)[C@]2(C)[C@H]3CC[C@@]4(C)[C@H](c5ccoc5)OC(=O)[C@H]5O[C@]54[C@]3(C)C(=O)C[C@@H]12 [1,7-dideacetoxy-1,7-dioxo-3-deacetylkhivorin]
ATP [1]: 5.46 Z-scores | TMRM Primary ([2]; primary screen, 12.5 μM, 24 h): 3.65 Z-scores | TMRM Rescreen ([2]; rescreen, 24 h): 4.00 Z-scores

COc1cc2oc3cc(OC)c(OC)c(CC=C(C)C)c3c(=O)c2c(O)c1CC=C(C)C [1-hydroxy-3,6,7-trimethoxy-2,8-diprenylxanthone]
ATP [1]: 5.44 Z-scores | TMRM Primary ([2]; primary screen, 12.5 μM, 24 h): 3.34 Z-scores | TMRM Rescreen ([2]; rescreen, 24 h): 3.27 Z-scores

COc1ccc(C(=O)/C=C/c2ccccc2)cc1 [4′-methoxychalcone]
ATP [1]: 3.97 Z-scores | TMRM Primary ([2]; primary screen, 12.5 μM, 24 h): 3.42 Z-scores | TMRM Rescreen ([2]; rescreen, 24 h): 1.48 Z-scores

COc1ccc(-c2coc3cc(O)cc(OC)c3c2=O)cc1 [5,4′-dimethoxy-7-hydroxyisoflavone]
ATP [1]: 5.76 Z-scores | TMRM Primary ([2]; primary screen, 12.5 μM, 24 h): 5.24 Z-scores | TMRM Rescreen ([2]; rescreen, 24 h): 6.90 Z-scores

CC(C)CCC[C@@H](C)[C@H]1CC[C@H]2[C@@H]3CC(=O)[C@H]4C[C@@H](O)CC[C@]4(C)[C@H]3CC[C@]12C [5alpha-cholestan-3beta-ol-6-one]
ATP [1]: 5.86 Z-scores | TMRM Primary ([2]; primary screen, 12.5 μM, 24 h): 7.10 Z-scores | TMRM Rescreen ([2]; rescreen, 24 h): 7.61 Z-scores

O=c1[nH]c2ccccc2n1CCCN1CCC(n2c(=O)[nH]c3cc(Cl)ccc32)CC1 [DOMPERIDONE]
ATP [1]: 5.20 Z-scores | Emax [1, 3]: 13% | Emax ([2]; Mus musculus, Primary neuron): 28.3% | TMRM Primary ([2]; primary screen, 12.5 μM, 24 h): 3.33 Z-scores | TMRM Rescreen ([2]; rescreen, 24 h): 5.58 Z-scores

CC(C)(C)OO [Peroxide, tert-butyl hydroperoxide]
reduction of whole well TMRM fluorescence ([2]; 50 μM, 24 h, DIV14 neuronal cultures): ~40%

CCN(CC)CCOC(=O)C(c1ccccc1)c1ccccc1 [adiphenine hydrochloride]
ATP [1]: 4.95 Z-scores | TMRM Primary ([2]; primary screen, 12.5 μM, 24 h): 3.05 Z-scores | TMRM Rescreen ([2]; rescreen, 24 h): 3.21 Z-scores

CC[C@H]1[C@@H]2C[C@H]3[C@@H]4N(C)c5ccccc5[C@]45C[C@@H]([C@H]2[C@H]5O)N3[C@@H]1O [ajmaline]
ATP [1]: 4.76 Z-scores | TMRM Primary ([2]; primary screen, 12.5 μM, 24 h): 3.76 Z-scores | TMRM Rescreen ([2]; rescreen, 24 h): 6.40 Z-scores

Nc1c(Br)cc(Br)cc1CN[C@H]1CC[C@H](O)CC1 [ambroxol hydrochloride]
ATP [1]: 5.04 Z-scores | TMRM Primary ([2]; primary screen, 12.5 μM, 24 h): 4.00 Z-scores | TMRM Rescreen ([2]; rescreen, 24 h): 5.14 Z-scores

CN(C)CCC=C1c2ccccc2CCc2ccccc21 [amitriptyline hydrochloride]
ATP [1]: 4.82 Z-scores | TMRM Primary ([2]; primary screen, 12.5 μM, 24 h): 4.78 Z-scores | TMRM Rescreen ([2]; rescreen, 24 h): 1.81 Z-scores

N=c1ccn2c(n1)O[C@H]1[C@H](O)[C@@H](CO)O[C@H]12 [ancitabine hydrochloride]
ATP [1]: 0.14 Z-scores | TMRM Primary ([2]; primary screen, 12.5 μM, 24 h): 3.04 Z-scores | TMRM Rescreen ([2]; rescreen, 24 h): 1.36 Z-scores

C[C@]12CC[C@@H](O)C[C@@H]1CC[C@@H]1[C@@H]2CC[C@]2(C)C(=O)CC[C@@H]12 [androsterone]
ATP [1]: 5.63 Z-scores | TMRM Primary [2]: 3.77 Z-scores | TMRM Rescreen [2]: 4.76 Z-scores

O=C1CCc2ccc(OCCCCN3CCN(c4cccc(Cl)c4Cl)CC3)cc2N1 [aripiprazole]
ATP [1]: 3.66 Z-scores | TMRM Primary ([2]; primary screen, 12.5 μM, 24 h): 2.98 Z-scores | TMRM Rescreen ([2]; rescreen, 24 h): 7.76 Z-scores

COc1ccc(CN=c2[nH]c(N3CCC[C@H]3CO)ncc2C(=O)NCc2ncccn2)cc1Cl [avanafil]
ATP [1]: 1.30 Z-scores | TMRM Primary ([2]; primary screen, 12.5 μM, 24 h): 3.13 Z-scores | TMRM Rescreen ([2]; rescreen, 24 h): 3.42 Z-scores

CN1CCCC(n2nc(Cc3ccc(Cl)cc3)c3ccccc3c2=O)CC1 (centres unmarked) [azelastine hydrochloride]
ATP [1]: 5.30 Z-scores | TMRM Primary ([2]; primary screen, 12.5 μM, 24 h): 7.06 Z-scores | TMRM Rescreen ([2]; rescreen, 24 h): 6.13 Z-scores

CCOC(=O)[C@H](CCc1ccccc1)N[C@H]1CCc2ccccc2N(CC(=O)O)C1=O [benazepril hydrochloride]
ATP [1]: 5.26 Z-scores | TMRM Primary ([2]; primary screen, 12.5 μM, 24 h): 3.43 Z-scores | TMRM Rescreen ([2]; rescreen, 24 h): 2.43 Z-scores

CCCCNc1ccc(C(=O)OCCOCCOCCOCCOCCOCCOCCOCCOCCOC)cc1 [benzonatate]
ATP [1]: 4.35 Z-scores | TMRM Primary ([2]; primary screen, 12.5 μM, 24 h): 2.78 Z-scores | TMRM Rescreen ([2]; rescreen, 24 h): 8.21 Z-scores

c1ccc(-c2ccc(C(c3ccccc3)n3ccnc3)cc2)cc1 (centres unmarked) [bifonazole]
ATP [1]: 4.00 Z-scores | TMRM Primary ([2]; primary screen, 12.5 μM, 24 h): 3.81 Z-scores | TMRM Rescreen ([2]; rescreen, 24 h): 1.84 Z-scores

CC(C)(c1ccc(O)cc1)c1ccc(O)cc1 [bisphenol a]
ATP [1]: 4.73 Z-scores | hit in TMRM primary screen when assayed at 4 h ([2]; 12.5 μM, 4 h): bisphenol a* | TMRM Primary ([2]; primary screen, 12.5 μM, 24 h): 3.35 Z-scores | TMRM Rescreen ([2]; rescreen, 24 h): 7.40 Z-scores

CCCCN1CCCCC1C(=O)Nc1c(C)cccc1C (centres unmarked) [bupivacaine hydrochloride]
ATP [1]: 4.80 Z-scores | TMRM Primary ([2]; primary screen, 12.5 μM, 24 h): 5.35 Z-scores | TMRM Rescreen ([2]; rescreen, 24 h): 5.25 Z-scores

COC(=O)C[C@H]1C2(C)CC34OC5(C)O[C@@]6([C@H](OC(C)=O)C(OC(C)=O)[C@]7(C)C(/C(=C(/O)C(C)C)C(=O)O[C@H]7c7ccoc7)[C@@]6(O5)[C@H](OC(C)=O)[C@@]3(O)C2OC(=O)C(C)C)[C@]14C (some centres unmarked) [bussein]
ATP [1]: 5.58 Z-scores | TMRM Primary ([2]; primary screen, 12.5 μM, 24 h): 3.44 Z-scores | TMRM Rescreen ([2]; rescreen, 24 h): 3.92 Z-scores

CCCCOC(=O)c1ccc(O)cc1 [butyl paraben]
ATP [1]: 3.84 Z-scores | TMRM Primary ([2]; primary screen, 12.5 μM, 24 h): 3.42 Z-scores | TMRM Rescreen ([2]; rescreen, 24 h): 4.18 Z-scores

COC(=O)C[C@H]1C(C)(C)C(=O)[C@@H]2CC3=C(CC[C@]4(C)C3=CC(=O)O[C@H]4c3ccoc3)[C@@]1(C)C2=O [carapin-8(9)-ene]
ATP [1]: 4.89 Z-scores | TMRM Primary ([2]; primary screen, 12.5 μM, 24 h): 3.50 Z-scores | TMRM Rescreen ([2]; rescreen, 24 h): 3.82 Z-scores

CN(C)CCN(Cc1ccc(Cl)cc1)c1ccccn1 [chloropyramine hydrochloride]
ATP [1]: 3.26 Z-scores | TMRM Primary ([2]; primary screen, 12.5 μM, 24 h): 3.35 Z-scores | TMRM Rescreen ([2]; rescreen, 24 h): 5.24 Z-scores

CN(C)CCCN1c2ccccc2Sc2ccc(Cl)cc21 [chlorpromazine]
ATP [1]: 5.00 Z-scores | TMRM Primary ([2]; primary screen, 12.5 μM, 24 h): 2.79 Z-scores | TMRM Rescreen ([2]; rescreen, 24 h): 2.66 Z-scores

CN(C)CC/C=C1/c2ccccc2Sc2ccc(Cl)cc21 [chlorprothixene hydrochloride]
ATP [1]: 3.17 Z-scores | TMRM Primary ([2]; primary screen, 12.5 μM, 24 h): 6.17 Z-scores | TMRM Rescreen ([2]; rescreen, 24 h): 5.04 Z-scores

CN1CCC[C@@H]1CCO[C@](C)(c1ccccc1)c1ccc(Cl)cc1 [clemastine fumarate]
TMRM Primary ([2]; primary screen, 12.5 μM, 24 h): 2.82 Z-scores | TMRM Rescreen ([2]; rescreen, 24 h): 3.22 Z-scores

C[N+]12CCC(CC1)C(OC(=O)C(O)(c1ccccc1)c1ccccc1)C2 (centres unmarked) [clidinium bromide]
ATP [1]: 6.21 Z-scores | EC50 ([1]; Mus musculus, Primary neuron, dose response, 15 concentrations from 6 nM to 100 uM): 420 nM | Emax [1, 3]: 20.5% | Emax ([2]; Mus musculus, Primary neuron): 14.3% | EC50 ([2]; Mus musculus, Primary neuron, read-out: TMRM-EC50): 450 nM | TMRM Primary ([2]; primary screen, 12.5 μM, 24 h): 2.49 Z-scores | TMRM Rescreen ([2]; rescreen, 24 h): 4.11 Z-scores

CCN(CC)CCOc1ccc(C(=C(Cl)c2ccccc2)c2ccccc2)cc1 [clomiphene citrate]
ATP [1]: 4.20 Z-scores | TMRM Primary ([2]; primary screen, 12.5 μM, 24 h): 2.94 Z-scores | TMRM Rescreen ([2]; rescreen, 24 h): 3.45 Z-scores

CN1CCN(C2=Nc3cc(Cl)ccc3Nc3ccccc32)CC1 [clozapine]
ATP [1]: 3.88 Z-scores | TMRM Primary ([2]; primary screen, 12.5 μM, 24 h): 3.24 Z-scores | TMRM Rescreen ([2]; rescreen, 24 h): 5.80 Z-scores

CNCCC(Oc1ccc(C(F)(F)F)cc1)c1ccccc1 (centres unmarked) [fluoxetine hydrochloride]
ATP [1]: 3.70 Z-scores
